# Experimental data taken from ChEMBL document CHEMBL3885881, “DrugMatrix”.
# Species: Rattus norvegicus
# Assay: DrugMatrix - Regimen: Daily Repeat
# Format: toxicity, organism-based, Sprague-Dawley
# Set-up: regimen Daily Repeat, gender Male, age 6-8 weeks
# Conditions: in vivo, po, route oral GAVAGE, […]; for ABSOLUTE BASOPHIL / ABSOLUTE EOSINOPHIL / ABSOLUTE LYMPHOCYTE / ABSOLUTE MONOCYTE / ABSOLUTE SEGMENTED NEUTROPHIL / BASOPHIL / EOSINOPHIL / ERYTHROCYTE COUNT / HEMATOCRIT / HEMOGLOBIN / LEUKOCYTE COUNT / LYMPHOCYTE / MEAN CORPUSCULAR HEMOGLOBIN / MEAN CORPUSCULAR HEMOGLOBIN CONCENTRATION / MEAN CORPUSCULAR VOLUME / MONOCYTE / NEUTROPHIL / NUCLEATED RED BLOOD CELLS / PLATELET COUNT: tissue Blood; for ALANINE AMINOTRANSFERASE / ALBUMIN / ALKALINE PHOSPHATASE / ASPARTATE AMINOTRANSFERASE / BLOOD UREA NITROGEN / CARBON DIOXIDE / CHLORIDE / CHOLESTEROL / CREATINE PHOSPHOKINASE / CREATININE / GLUCOSE / LACTATE DEHYDROGENASE / LIPASE / PHOSPHORUS / POTASSIUM / SODIUM / TOTAL BILIRUBIN / TOTAL PROTEIN / URIC ACID: tissue Plasma
# [1] = 3 mg/kg, 72 h, dose level Low, time 3 day
# [2] = 3 mg/kg, 120 h, dose level Low, time 5 day
# [3] = 250 mg/kg, 72 h, dose level High, time 3 day
# [4] = 250 mg/kg, 120 h, dose level High, time 5 day
smiles,measurement,setting,value
N#Cc1ccc(C(c2ccc(C#N)cc2)n2cncn2)cc1 [LETROZOLE],ABSOLUTE BASOPHIL,[1],0 CELLS/uL
same,ABSOLUTE EOSINOPHIL,[1],184 CELLS/uL
same,ABSOLUTE LYMPHOCYTE,[1],10672.33 CELLS/uL
same,ABSOLUTE MONOCYTE,[1],0 CELLS/uL
same,ABSOLUTE SEGMENTED NEUTROPHIL,[1],1877 CELLS/uL
same,BASOPHIL,[1],0%
same,EOSINOPHIL,[1],0.67%
same,ERYTHROCYTE COUNT,[1],4.51 x10E6/uL
same,HEMATOCRIT,[1],28.03%
same,HEMOGLOBIN,[1],11.33 G/DL
same,LEUKOCYTE COUNT,[1],12.73 x10E3/uL
same,LYMPHOCYTE,[1],88.67%
same,MEAN CORPUSCULAR HEMOGLOBIN,[1],25.07 pg
same,MEAN CORPUSCULAR HEMOGLOBIN CONCENTRATION,[1],40.37 G/DL
same,MEAN CORPUSCULAR VOLUME,[1],62.1 fL
same,MONOCYTE,[1],0%
same,NEUTROPHIL,[1],10.67%
same,NUCLEATED RED BLOOD CELLS,[1],0 /100WBC
same,PLATELET COUNT,[1],541.33 x10E3/uL
same,ALANINE AMINOTRANSFERASE,[1],85.67 u/L
same,ALBUMIN,[1],4.07 G/DL
same,ALKALINE PHOSPHATASE,[1],351.67 u/L
same,ASPARTATE AMINOTRANSFERASE,[1],114.67 u/L
same,BLOOD UREA NITROGEN,[1],15 mg/dL
same,CARBON DIOXIDE,[1],26.67 mmol/L
same,CHLORIDE,[1],105 MEQ/L
same,CHOLESTEROL,[1],72.33 mg/dL
same,CREATINE PHOSPHOKINASE,[1],577.67 u/L
same,CREATININE,[1],0.17 mg/dL
same,GLUCOSE,[1],196.67 mg/dL
same,LACTATE DEHYDROGENASE,[1],171.67 u/L
same,LIPASE,[1],8.33 u/L
same,PHOSPHORUS,[1],13.4 mg/dL
same,POTASSIUM,[1],5.91 MEQ/L
same,SODIUM,[1],144 MEQ/L
same,TOTAL BILIRUBIN,[1],0.2 mg/dL
same,TOTAL PROTEIN,[1],5.4 G/DL
same,URIC ACID,[1],1.37 mg/dL
same,ABSOLUTE BASOPHIL,[2],0 CELLS/uL
same,ABSOLUTE EOSINOPHIL,[2],0 CELLS/uL
same,ABSOLUTE LYMPHOCYTE,[2],13516.33 CELLS/uL
same,ABSOLUTE MONOCYTE,[2],50.67 CELLS/uL
same,ABSOLUTE SEGMENTED NEUTROPHIL,[2],1033 CELLS/uL
same,BASOPHIL,[2],0%
same,EOSINOPHIL,[2],0%
same,ERYTHROCYTE COUNT,[2],5.59 x10E6/uL
same,HEMATOCRIT,[2],35.97%
same,HEMOGLOBIN,[2],14.1 G/DL
same,LEUKOCYTE COUNT,[2],14.6 x10E3/uL
same,LYMPHOCYTE,[2],92.67%
same,MEAN CORPUSCULAR HEMOGLOBIN,[2],25.23 pg
same,MEAN CORPUSCULAR HEMOGLOBIN CONCENTRATION,[2],39.17 G/DL
same,MEAN CORPUSCULAR VOLUME,[2],64.33 fL
same,MONOCYTE,[2],0.33%
same,NEUTROPHIL,[2],7%
same,NUCLEATED RED BLOOD CELLS,[2],0 /100WBC
same,PLATELET COUNT,[2],1165 x10E3/uL
same,ALANINE AMINOTRANSFERASE,[2],55 u/L
same,ALBUMIN,[2],4.23 G/DL
same,ALKALINE PHOSPHATASE,[2],407 u/L
same,ASPARTATE AMINOTRANSFERASE,[2],79.33 u/L
same,BLOOD UREA NITROGEN,[2],18 mg/dL
same,CARBON DIOXIDE,[2],27.67 mmol/L
same,CHLORIDE,[2],103 MEQ/L
same,CHOLESTEROL,[2],69.33 mg/dL
same,CREATINE PHOSPHOKINASE,[2],252.67 u/L
same,CREATININE,[2],0.22 mg/dL
same,GLUCOSE,[2],176 mg/dL
same,LACTATE DEHYDROGENASE,[2],155.33 u/L
same,LIPASE,[2],11.33 u/L
same,PHOSPHORUS,[2],11.3 mg/dL
same,POTASSIUM,[2],6.08 MEQ/L
same,SODIUM,[2],143.2 MEQ/L
same,TOTAL BILIRUBIN,[2],0.2 mg/dL
same,TOTAL PROTEIN,[2],5.8 G/DL
same,URIC ACID,[2],1.3 mg/dL
same,ABSOLUTE BASOPHIL,[3],0 CELLS/uL
same,ABSOLUTE EOSINOPHIL,[3],0 CELLS/uL
same,ABSOLUTE LYMPHOCYTE,[3],16113.33 CELLS/uL
same,ABSOLUTE MONOCYTE,[3],104 CELLS/uL
same,ABSOLUTE SEGMENTED NEUTROPHIL,[3],1216 CELLS/uL
same,BASOPHIL,[3],0%
same,EOSINOPHIL,[3],0%
same,ERYTHROCYTE COUNT,[3],5.67 x10E6/uL
same,HEMATOCRIT,[3],35.07%
same,HEMOGLOBIN,[3],14.07 G/DL
same,LEUKOCYTE COUNT,[3],17.43 x10E3/uL
same,LYMPHOCYTE,[3],92%
same,MEAN CORPUSCULAR HEMOGLOBIN,[3],24.8 pg
same,MEAN CORPUSCULAR HEMOGLOBIN CONCENTRATION,[3],40.1 G/DL
same,MEAN CORPUSCULAR VOLUME,[3],61.83 fL
same,MONOCYTE,[3],0.67%
same,NEUTROPHIL,[3],7.33%
same,NUCLEATED RED BLOOD CELLS,[3],0 /100WBC
same,PLATELET COUNT,[3],1266.33 x10E3/uL
same,ALANINE AMINOTRANSFERASE,[3],69 u/L
same,ALBUMIN,[3],3.97 G/DL
same,ALKALINE PHOSPHATASE,[3],487 u/L
same,ASPARTATE AMINOTRANSFERASE,[3],117 u/L
same,BLOOD UREA NITROGEN,[3],13 mg/dL
same,CARBON DIOXIDE,[3],29 mmol/L
same,CHLORIDE,[3],102.33 MEQ/L
same,CHOLESTEROL,[3],68.33 mg/dL
same,CREATINE PHOSPHOKINASE,[3],365.33 u/L
same,CREATININE,[3],0.24 mg/dL
same,GLUCOSE,[3],140.67 mg/dL
same,LACTATE DEHYDROGENASE,[3],544.67 u/L
same,LIPASE,[3],12.33 u/L
same,PHOSPHORUS,[3],11.13 mg/dL
same,POTASSIUM,[3],5.99 MEQ/L
same,SODIUM,[3],142.27 MEQ/L
same,TOTAL BILIRUBIN,[3],0.23 mg/dL
same,TOTAL PROTEIN,[3],5.47 G/DL
same,URIC ACID,[3],1.4 mg/dL
same,ABSOLUTE BASOPHIL,[4],0 CELLS/uL
same,ABSOLUTE EOSINOPHIL,[4],0 CELLS/uL
same,ABSOLUTE LYMPHOCYTE,[4],11610.33 CELLS/uL
same,ABSOLUTE MONOCYTE,[4],237.67 CELLS/uL
same,ABSOLUTE SEGMENTED NEUTROPHIL,[4],1485.33 CELLS/uL
same,BASOPHIL,[4],0%
same,EOSINOPHIL,[4],0%
same,ERYTHROCYTE COUNT,[4],6.3 x10E6/uL
same,HEMATOCRIT,[4],38.7%
same,HEMOGLOBIN,[4],15.17 G/DL
same,LEUKOCYTE COUNT,[4],13.33 x10E3/uL
same,LYMPHOCYTE,[4],87.33%
same,MEAN CORPUSCULAR HEMOGLOBIN,[4],24.13 pg
same,MEAN CORPUSCULAR HEMOGLOBIN CONCENTRATION,[4],39.23 G/DL
same,MEAN CORPUSCULAR VOLUME,[4],61.5 fL
same,MONOCYTE,[4],1.67%
same,NEUTROPHIL,[4],11%
same,NUCLEATED RED BLOOD CELLS,[4],0 /100WBC
same,PLATELET COUNT,[4],1093.67 x10E3/uL
same,ALANINE AMINOTRANSFERASE,[4],36.67 u/L
same,ALBUMIN,[4],4.27 G/DL
same,ALKALINE PHOSPHATASE,[4],295.33 u/L
same,ASPARTATE AMINOTRANSFERASE,[4],110.67 u/L
same,BLOOD UREA NITROGEN,[4],15.33 mg/dL
same,CARBON DIOXIDE,[4],28.67 mmol/L
same,CHLORIDE,[4],104.67 MEQ/L
same,CHOLESTEROL,[4],55.67 mg/dL
same,CREATINE PHOSPHOKINASE,[4],254 u/L
same,CREATININE,[4],0.21 mg/dL
same,GLUCOSE,[4],151.33 mg/dL
same,LACTATE DEHYDROGENASE,[4],321.67 u/L
same,LIPASE,[4],10.67 u/L
same,PHOSPHORUS,[4],9.9 mg/dL
same,POTASSIUM,[4],4.59 MEQ/L
same,SODIUM,[4],146.27 MEQ/L
same,TOTAL BILIRUBIN,[4],0.1 mg/dL
same,TOTAL PROTEIN,[4],5.77 G/DL
same,URIC ACID,[4],1.13 mg/dL
